Test [1] addresses T1, human NAAA (Homo sapiens, UniProt Q02083).
T1 construct: expressed in transfected cells; host or cells: HEK-293 (stably transfected, G418 selection); enzyme-enriched lysate
T1 sequence (Q02083 126-359 limits assumed): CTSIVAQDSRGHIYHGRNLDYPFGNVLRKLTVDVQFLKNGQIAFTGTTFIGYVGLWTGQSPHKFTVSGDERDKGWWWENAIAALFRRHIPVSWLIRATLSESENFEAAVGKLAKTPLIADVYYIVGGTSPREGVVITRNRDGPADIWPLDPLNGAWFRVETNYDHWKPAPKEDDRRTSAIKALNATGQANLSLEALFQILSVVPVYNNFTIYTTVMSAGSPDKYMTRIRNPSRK
T1 sequence (Q02083 29-125 limits assumed): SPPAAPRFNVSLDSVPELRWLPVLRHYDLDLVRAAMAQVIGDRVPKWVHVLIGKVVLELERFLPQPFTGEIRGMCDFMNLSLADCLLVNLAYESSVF
The test is described as follows: In vitro human NAAA fluorogenic assay. The format is biochemical. Conditions: enzyme-enriched lysate of HEK-293 cells stably transfected with human NAAA. The procedure:
Human recombinant proteins were obtained from HEK-293 stable overexpressing NAAA cell lines. Cells were grown in Dulbecco's modified Eagle medium (DMEM) containing 10% FBS, 1% penicillin/streptomycin, 1% glutamine and 500 μg/mL G418. To obtain membrane preparation cells were scraped off with cold phosphate-buffered saline (PBS) and collected by centrifugation (300×g, 7 min, 4° C.). Cell pellet were stored at −80° C. until protein preparation.
In Vitro Human NAAA Assay
Preparation of Enzyme-Enriched Lysate (h-NAAA).
HEK-293 cells stably transfected with the human NAAA coding sequences were used as enzyme source. Cell pellets were suspended in 20 mM Tris HCl (pH 7.4) with 0.32 M sucrose, sonicated and centrifuged at 800×g for 30 min at 4° C. Supernatants were then ultracentrifuged at 12,000×g for 30 min at 4° C. Pellets were re-suspended in PBS buffer (pH 7.4) and subjected to three freeze-thaw cycles at −80° C. The suspension was finally ultracentrifuged at 105,000×g for 1 h at 4° C., supematants were collected, protein concentration was measured and samples aliquoted and stored at −80° C. until use.
The results are summarized in Table 3 as follows, wherein +: IC50>2 μM; ++: 1.0 μM<IC50<2 μM; +++: IC50<1 μM: […]

For test [2], the system named is Neuro2A cells. The test is described as follows: Inhibition of ROS production in Neuro2A cells (H2O2-induced, DCFH-DA fluorescence). The format is cell-based. Conditions: for Inhibition of ROS production in neuro 2A cells, 5 μM (inhibition) / inhibition at 5 µM: compound 5 μM; for Inhibition of ROS production in neuro 2A cells, 5 μM (inhibition) / Inhibition of ROS production in neuro 2A cells, 10 μM (inhibition): ROS induced with 0.2 mM H2O2; for Inhibition of ROS production in neuro 2A cells, 10 μM (inhibition) / inhibition at 10 µM: compound 10 μM; for inhibition at 5 µM / inhibition at 10 µM: Mus musculus, N2a; for inhibition at 5 µM: ROS induced with 0.2 mM H2O2, read-out: Inhibition of ROS production in neuro 2A cells, 5 μM (inhibition); for inhibition at 10 µM: ROS induced with 0.2 mM H2O2, read-out: Inhibition of ROS production in neuro 2A cells, 10 μM (inhibition). The procedure: The experiments carried out to evaluate the inhibition of ROS production using the compounds of the invention were based on the method reported by Danli W. and Patricia Yotnda in Production and Detection of Reactive Oxygen Species (ROS) in Cancers, J. Vis Exp. 2011; (57):3357.
Cultured brain Neuroblastoma2A (Neuro2A) were used.
15.000 Cells were plated in a 96 well plate with black walls and transparent flat bottom in 100 μL of DMEM complete medium (including 10% fetal bovine serum, […] L-Glutamine) containing compounds at indicated concentrations or 0.5% dimethylsulfoxide (DMSO), and kept overnight at 37° C. to allow them to attach to the plate. The following day the culture medium was removed, cells were washed with 100 μl of Phosphate Buffer Saline, pH 7.4 (PBS) and loaded with 100 μL of PBS containing 10 μM of dichloro-dihydro-fluorescein diacetate (DCFH-DA) and compounds at the indicated concentrations (or DMSO 0.5%) for additional 45 min at 37° C. DCFH-DA was prepared as a 20 mM stock in (DMSO) and kept in the dark at 4° C.
ROS production was induced by exposure with 0.2 mM H2O2 dissolved in 100 μl of complete DMEM medium without phenol red. Fluorescence intensity was measured at an […] wavelengths of 485/535 nm and ROS production was monitored for 2 h, at 37° C.

[3] abbreviates: read-out: Activity h-NAAA Fluorogenic assay.

Molecules are shown by their SMILES. Read-outs that look alike come from different tables or passages of the source. Where only a bound is given, the exact number is not on record here.

With `Cc1n[nH]c(C)c1S(=O)(=O)N1C2CCC1CC(Oc1ccc(C#N)cc1)C2` [Example 09, (1R,3s,5S)-3-(4-Cyanophenoxy)-8-[(3,5-dimethyl-1H-pyrazol-4-yl)sulfonyl]-8-azabicyclo[3.2.1]octane], the IC50 in test [1] (setting [3]) is greater than 2 µM. In test [2], the “Inhibition of ROS production in neuro 2A cells, 5 μM (inhibition)” value (“Inhibition … 5 μM (inhibition)” for short) is listed as 35% and the “Inhibition of ROS production in neuro 2A cells, 10 μM (inhibition)” value (“Inhibition … 10 μM (inhibition)” for short) worked out at 56%.

For orientation: inhibition means how much of the control response was suppressed. As for `CCCCc1ccc(OC2CC3CCC(C2)N3S(=O)(=O)c2c(C)noc2C)cc1` [Example 15, 4-[[(1R,3r,5S)-3-(4-Butylphenoxy)-8-azabicyclo[3.2.1]octan-8-yl]sulfonyl]-3,5-dimethyl-isoxazole], the IC50 in test [1] (setting [3]) is greater than 2 µM. In test [2], the inhibition at 5 µM worked out at 0% and the inhibition at 10 µM stood at 84%.

For the compound `CCCCc1cnc(OC2CC3CCC(C2)N3S(=O)(=O)c2c(C)n[nH]c2C)cn1` [Example 40, (1R,3r,5S)-8-[(3,5-Dimethyl-1H-pyrazol-4-yl)sulfonyl]-3-[5-butylpyrazin-2-yl]oxy-8-azabicyclo[3.2.1]octane], the IC50 in test [1] (setting [3]) is less than 1 µM. Further, in test [2], the inhibition at 5 µM came to 19% and the inhibition at 10 µM worked out at 86%.

Take `Cc1n[nH]c(C)c1S(=O)(=O)N1C[C@H]2CCC[C@@H](C1)[C@H]2Oc1cnccn1` [Example 51, (1R,5S,9r)-3-((3,5-Dimethyl-1H-pyrazol-4-yl)sulfonyl)-9-(pyrazin-2-yloxy)-3-azabicyclo[3.3.1]nonane]: the IC50 in test [1] (setting [3]) is greater than 2 µM. Also, in test [2], the “Inhibition … 5 μM (inhibition)” value is 0% and the “Inhibition … 10 μM (inhibition)” value stood at 21%.

On to `Cc1n[nH]c(C)c1S(=O)(=O)N1C[C@H]2CCC[C@@H](C1)[C@@H]2Oc1cnccn1` [Example 52, (1R,5S,9s)-3-((3,5-Dimethyl-1H-pyrazol-4-yl)sulfonyl)-9-(pyrazin-2-yloxy)-3-azabicyclo[3.3.1]nonane], for which, in test [1] (setting [3]), the IC50 is less than 1 µM. Moreover, in test [2], the “Inhibition … 5 μM (inhibition)” value was 9% and the “Inhibition … 10 μM (inhibition)” value stood at 27%.

In turn, `CCCCc1ccc(OC2CC3CCC(C2)N3S(=O)(=O)c2c(C)n[nH]c2C)cc1` [Example 54, (1R,3r,5S)-3-(4-Butylphenoxy)-8-[(3,5-dimethyl-1H-pyrazol-4-yl)sulfonyl]-8-azabicyclo[3.2.1]octane] gave an IC50 in test [1] (Activity h-NAAA Fluorogenic assay) of less than 1 µM. Moreover, in test [2], the “Inhibition … 5 μM (inhibition)” value amounted to 17% and the “Inhibition … 10 μM (inhibition)” value came to 114%.

Values taken from patent US10865194B2, “Therapeutically active bicyclic-sulphonamides and pharmaceutical compositions” (FONDAZIONE ISTITUTO ITALIANO DI TECNOLOGIA, priority 2017, dated 2020).
